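How tested: cells in 96-well plates exposed to compound for 48 hours at five concentrations. At the TGI there is no net growth.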
Key:
Assay in all cases: DTP human tumour cell line panel, 48 h
SF-295 CNS = tested on: SF-295 CNS
OVCAR-5 ovarian = tested on: OVCAR-5 ovarian
SNB-75 CNS = tested on: SNB-75 CNS
SK-MEL-5 melanoma = tested on: SK-MEL-5 melanoma
LOX IMVI melanoma = tested on: LOX IMVI melanoma
NCI-H226 lung = tested on: NCI-H226 lung
CCRF-CEM leukemia = tested on: CCRF-CEM leukemia
OVCAR-8 ovarian = tested on: OVCAR-8 ovarian
SK-MEL-28 melanoma = tested on: SK-MEL-28 melanoma
KM12 colon = tested on: KM12 colon
786-0 renal = tested on: 786-0 renal
MALME-3M melanoma = tested on: MALME-3M melanoma
SK-OV-3 ovarian = tested on: SK-OV-3 ovarian
HCT-15 colon = tested on: HCT-15 colon
UACC-62 melanoma = tested on: UACC-62 melanoma
DLD-1 colon = tested on: DLD-1 colon
HCT-116 colon = tested on: HCT-116 colon
COLO 205 colon = tested on: COLO 205 colon
UO-31 renal = tested on: UO-31 renal
SR leukemia = tested on: SR leukemia
NCI-H460 lung = tested on: NCI-H460 lung
IGROV1 ovarian = tested on: IGROV1 ovarian
M14 melanoma = tested on: M14 melanoma
M19-MEL melanoma = tested on: M19-MEL melanoma
NCI-H522 lung = tested on: NCI-H522 lung
K-562 leukemia = tested on: K-562 leukemia
EKVX NSCLC = tested on: EKVX NSCLC
OVCAR-4 ovarian = tested on: OVCAR-4 ovarian
SNB-78 CNS = tested on: SNB-78 CNS
ACHN renal = tested on: ACHN renal
A549 NSCLC = tested on: A549 NSCLC
XF 498 CNS = tested on: XF 498 CNS
LXFL 529 NSCLC = tested on: LXFL 529 NSCLC
NCI-H23 lung = tested on: NCI-H23 lung
HOP-92 NSCLC = tested on: HOP-92 NSCLC
SNB-19 CNS = tested on: SNB-19 CNS
HL-60(TB) leukemia = tested on: HL-60(TB) leukemia
DMS 273 small cell lung = tested on: DMS 273 small cell lung
RXF-631 renal = tested on: RXF-631 renal
SW-620 colon = tested on: SW-620 colon
HT29 colon = tested on: HT29 colon
UACC-257 melanoma = tested on: UACC-257 melanoma
HOP-18 NSCLC = tested on: HOP-18 NSCLC
HOP-62 NSCLC = tested on: HOP-62 NSCLC
SK-MEL-2 melanoma = tested on: SK-MEL-2 melanoma
OVCAR-3 ovarian = tested on: OVCAR-3 ovarian
RXF 393 renal = tested on: RXF 393 renal
RPMI-8226 leukemia = tested on: RPMI-8226 leukemia
TK-10 renal = tested on: TK-10 renal
KM20L2 colon = tested on: KM20L2 colon
SF-539 CNS = tested on: SF-539 CNS
SF-268 CNS = tested on: SF-268 CNS
CAKI-1 renal = tested on: CAKI-1 renal
U251 CNS = tested on: U251 CNS
SN12C renal = tested on: SN12C renal
HCC-2998 colon = tested on: HCC-2998 colon
MOLT-4 leukemia = tested on: MOLT-4 leukemia
DMS 114 small cell lung = tested on: DMS 114 small cell lung
A498 renal = tested on: A498 renal

Measured: TGI

COC1(OC)CC2CCCCC2=C(C)N1S(=O)(=O)c1ccccc1 (stereo unspecified)
not listed: HCC-2998 colon | MOLT-4 leukemia | DMS 114 small cell lung | A498 renal
> 100 µM: all other assays above

O=C(O)C1CCC(=O)N1C(=O)C(Cl)c1ccccc1 (stereo unspecified)
not listed: SR leukemia | RXF 393 renal | SF-539 CNS
> 100 µM: all other assays above
